Experimental data as given in US6599898B2, “Use of certain substituted caprolactam carbonates and ethers in treating tumors” (Novartis AG, priority 2000, dated 2003).

How the values were obtained:
A549 tumor xenografts = assay: Human tumor xenograft growing s.c. in athymic nude mice; type: in vivo, athymic nude mouse; conditions: 5×/week for 2 weeks, recorded on day 24, * = p<0.05
Protocol: (§1) Utilizing this model, one can measure the ability of test compounds to inhibit the growth of human tumor xenografts growing subcutaneously (s.c.) in athymic nude mice. The histologic tumor type employed was MDA-MB-435 breast carcinoma for Ex.1 and 7 and A549 non-small cell lung carcinoma for Ex. 1-3.
A549 non-small cell lung carcinoma: Treatments were started 17 d post-implantation (1×10^7 cells/mouse), when a mean tumor volume of approximately 120 mm^3 was reached. Ex. 1-3 were administered iv on days 17-21 (followed by 2 d rest, then a second cycle of treatment on days 24-28). Total daily doses of 10 or 30 μmol/kg were administered as a single injection. Data in this table were recorded on day 24, 3 d after the last treatment of the first cycle. An asterisk (*) indicates p<0.05 using a one-tailed Student's t-Test.
Toxicity was monitored by recording average group body weights twice weekly, and by daily observation of general health. Efficacy was monitored by taking measurements of tumor length, width, and depth weekly using digital calipers coupled to automated data collectors. […] Anti-tumor activity was expressed as % T/C(Δ MTV of treated group÷Δ MTV of control group×100%). Statistical significance was evaluated using a one-tailed Student's t-test (p<0.05).

[1] = system: MDA-MB-435 tumor xenografts; assay: as above; type: in vivo, athymic nude mouse; conditions: 3×/week for 3 weeks, * = p<0.05
Protocol: as §1
MDA-MB-435 human breast carcinoma: Treatments were started 15 d post implantation (3×10^6 cells/mouse), when a mean tumor volume of approximately 45 mm^3 was reached. Ex. 1 and 7 were administered iv at three times per week for 3 weeks (days 15, 17, 20, 22, 24, 27, 29, and 31), at 3.3, 10, and 33 μmol/kg. Doxorubicin was administered iv at 2 mg/kg using the same schedule. Each data point represents tumor growth (mean±SEM), or body weight (mean), with an initial group size of n=8, from a representative experiment performed twice. An asterisk (*) indicates p<0.05 using a one-tailed Student's t-test.
Toxicity was monitored by recording average group body weights twice weekly, and by daily observation of general health. Efficacy was monitored by taking measurements of tumor length, width, and depth weekly using digital calipers coupled to automated data collectors. Mean tumor volume (MTV) at initiation of therapy was subtracted from final MTV in order to express the actual tumor growth during treatment (Δ MTV). Anti-tumor activity was expressed as % T/C(Δ MTV of treated group÷Δ MTV of control group×100%). Statistical significance was evaluated using a one-tailed Student's t-test (p<0.05).

[2] = system: MDA-MB-435 human breast carcinoma; assay: Anchorage Dependent Growth Monolayer Assay (ADGMA), MTS; type: cell-based; conditions: MDA-MB-435, 72 h, 3-day exposure, MTS A490, read-out: IC50 (average±S.D.) MDA-MB-435
Protocol: As indicated above, all of the compounds of formula I, and their corresponding pharmaceutically acceptable acid addition salts, are anti-tumor agents and are, therefore, useful in inhibiting the growth of various lymphomas, sarcomas, carcinomas, myelomas, and leukemia cell lines. […]
The ADGMA compares the number of viable cells following a 3-day exposure to a test compound relative to a number of cells present at the time the test compound was added. […] The absorbance at 490 nm (A490) of the formazan derivative is proportional to the number of viable cells. […]
Cell lines are trypsinized and counted using a Coulter counter to determine plating densities. […] The number of cells plates as determined in preliminary experiments, results in cell densities of 75-90% of confluency by 4 days after plating. Initial cell densities, assayed one day after plating, are roughly 0.15-0.20 absorbance units greater than the media blank. […] A490 of control plates is read 4 h after MTS addition to determine initial cell density values for each cell line. Three days after addition of test compound, 10 μL/well of MTS mixture is added to the test plates and A490 is read 4 h later. A490 values for wells containing cells are corrected for media absorbance, then normalized to initial density readings to determine percent net growth. […]

| SMILES | % T/C (A549 tumor xenografts; 10 μmol/kg iv daily) | % T/C (A549 tumor xenografts; 30 μmol/kg iv daily) | % T/C ([1]; 3.3 μmol/kg iv) | % T/C ([1]; 10 μmol/kg iv) | % T/C ([1]; 33 μmol/kg iv) | IC50 [2] |
| --- | --- | --- | --- | --- | --- | --- |
| CCCCCOC(=O)O[C@@H]1CC[C@H](NC(=O)[C@H](OC)[C@H](O)[C@@H](O)[C@H](O)/C=C/C(C)(C)C)C(=O)NC1 [Ex. 2, (2R,3R,4S,5R,6E)-3,4,5-trihydroxy-2-methoxy-8,8-dimethyl-N-[(3S,6R)-hexahydro-2-oxo-6-([[pentyloxy]carbonyl]oxy)-2H-azepin-3-yl]non-6-enonamide] | 32* % | 46* % | – | – | – | – |
| CCCCCCCCCCCOCC(=O)O[C@@H]1CC[C@H](NC(=O)[C@H](OC)[C@H](O)[C@@H](O)[C@H](O)/C=C/C(C)(C)C)C(=O)NC1 [Ex. 7, (2R,3R,4S,5R,6E)-3,4,5-trihydroxy-2-methoxy-8,8-dimethyl-N-[(3S,6R)-hexahydro-2-oxo-6-([[undecyloxy]acetyl]oxy)-2H-azepin-3-yl]non-6-enonamide] | – | – | 102% | 64% | 30* % | 61 ± 95 nM |
